Experiments:
[1] = Half life in human at 20 mg/kg, po; assay type: ADME, organism-based; conditions: in vivo
MDA-MB-231 [2] = experiment: Antiproliferative activity against human MDA-MB-231 cells assessed as reduction in cell viability by MTT assay; assay type: functional, cell-based
HCT-116 [3] = experiment: Antiproliferative activity against human HCT-116 cells assessed as reduction in cell viability by MTT assay; assay type: functional, cell-based
HeLa = experiment: Antiproliferative activity against human HeLa cells assessed as reduction in cell viability by MTT assay; assay type: functional, cell-based
Insulin receptor = Insulin receptor (Homo sapiens, UniProt P06213); experiment: Inhibition of INSR (unknown origin)
DLD-1 = experiment: Cytotoxicity against human DLD1 cells assessed as growth inhibition; assay type: functional, cell-based
HCT-116 [4] = experiment: Cytotoxicity against human HCT-116 cells; assay type: functional, cell-based
[5] = molecular target: T1, von Hippel-Lindau disease tumor suppressor/Bromodomain-containing protein 4 (Homo sapiens, UniProt O60885+P40337); experiment: PROTAC activity at BRD4/VHL E3 ligase in human HEK293 cells assessed as degradation of BRD4 incubated for 18 hrs by Nano-Glo HiBiT assay; assay type: cell-based
[6] = molecular target: T1, von Hippel-Lindau disease tumor suppressor/Bromodomain-containing protein 4; experiment: PROTAC activity at BRD4/VHL E3 ligase in human HEK293 cells assessed as maximal degradation of BRD4 at 10 nM incubated for 18 hrs by Nano-Glo HiBiT assay relative to control; assay type: cell-based
Focal adhesion kinase 1 [7] = molecular target: T2, Focal adhesion kinase 1 (Homo sapiens, UniProt Q05397); experiment: Inhibition of FAK (unknown origin) at 0.5 uM relative to control
Target sequence in this assay (Q05397 2-1052 limits assumed): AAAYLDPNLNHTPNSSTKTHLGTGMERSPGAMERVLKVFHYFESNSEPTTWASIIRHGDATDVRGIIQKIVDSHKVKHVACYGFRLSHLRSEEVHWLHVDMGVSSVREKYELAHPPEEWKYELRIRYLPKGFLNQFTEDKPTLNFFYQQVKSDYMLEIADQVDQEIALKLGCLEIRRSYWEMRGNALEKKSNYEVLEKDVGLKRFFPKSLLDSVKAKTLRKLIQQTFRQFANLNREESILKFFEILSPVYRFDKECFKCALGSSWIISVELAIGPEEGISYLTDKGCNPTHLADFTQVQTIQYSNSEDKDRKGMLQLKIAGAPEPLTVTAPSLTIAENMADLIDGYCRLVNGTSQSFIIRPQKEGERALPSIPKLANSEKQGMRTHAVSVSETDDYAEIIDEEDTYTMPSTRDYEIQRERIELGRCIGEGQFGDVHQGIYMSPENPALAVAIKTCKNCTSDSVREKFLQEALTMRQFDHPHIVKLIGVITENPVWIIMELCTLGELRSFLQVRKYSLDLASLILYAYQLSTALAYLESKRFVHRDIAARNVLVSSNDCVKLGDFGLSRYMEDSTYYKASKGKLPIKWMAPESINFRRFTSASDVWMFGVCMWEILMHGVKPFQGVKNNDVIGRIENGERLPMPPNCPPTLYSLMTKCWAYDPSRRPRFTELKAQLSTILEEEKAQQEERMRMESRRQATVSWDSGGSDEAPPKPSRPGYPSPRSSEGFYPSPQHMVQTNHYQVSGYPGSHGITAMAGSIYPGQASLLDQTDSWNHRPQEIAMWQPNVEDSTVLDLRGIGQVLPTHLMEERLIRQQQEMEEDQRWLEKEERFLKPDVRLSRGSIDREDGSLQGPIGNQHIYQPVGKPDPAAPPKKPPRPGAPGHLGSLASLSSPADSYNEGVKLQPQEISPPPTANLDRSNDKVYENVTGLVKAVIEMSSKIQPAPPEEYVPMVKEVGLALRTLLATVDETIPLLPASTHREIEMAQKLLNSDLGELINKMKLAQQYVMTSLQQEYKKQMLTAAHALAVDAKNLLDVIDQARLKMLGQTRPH

Focal adhesion kinase 1 [8] = molecular target: T2, Focal adhesion kinase 1; experiment: Inhibition of FAK (unknown origin) at 0.1 uM relative to control
Target sequence in this assay (Q05397 2-1052 limits assumed): as above

[9] = Half life in human plasma; assay type: ADME, cell-free
MCF7 [10] = experiment: Antiproliferative activity against human MCF7 cells assessed as reduction in cell viability incubated for 72 hrs by MTT assay; assay type: functional, cell-based; conditions: MCF7, 72 h
A-375 = experiment: Antiproliferative activity against human A-375 cells assessed as reduction in cell viability incubated for 72 hrs by MTT assay; assay type: functional, cell-based; conditions: A-375, 72 h
HepG2 [11] = experiment: Antiproliferative activity against human HepG2 cells assessed as reduction in cell viability incubated for 72 hrs by MTT assay; assay type: functional, cell-based; conditions: HepG2, 72 h
SGC-7901 = experiment: Antiproliferative activity against human SGC-7901 cells assessed as reduction in cell viability incubated for 72 hrs by MTT assay; assay type: functional, cell-based; conditions: SGC-7901, 72 h
MGC-803 [12] = experiment: Antitumor activity against human MGC-803 cells xenografted in nude mouse assessed as tumor inhibition at 20 mg/kg, ip administered once every two days for 21 days relative to control; assay type: functional; parameters: scale not given: the % may be the effect or the level left; conditions: time 21 day
HCT-116 [13] = experiment: Antiproliferative activity against human HCT-116 cells; assay type: functional, cell-based
KYSE-450 = experiment: Antiproliferative activity against human KYSE-450 cells; assay type: functional, cell-based
[14] = Antiproliferative activity against human PC-3 cells; assay type: functional, cell-based
HGC-27 = experiment: Antiproliferative activity against human HGC-27 cells; assay type: functional, cell-based
MCF7 [15] = experiment: Antiproliferative activity against human MCF7 cells; assay type: functional, cell-based
MDA-MB-231 [16] = experiment: Antiproliferative activity against human MDA-MB-231 cells; assay type: functional, cell-based
DU-145 = experiment: Antiproliferative activity against human DU-145 cells; assay type: functional, cell-based
TE-1 = experiment: Antiproliferative activity against human TE-1 cells; assay type: functional, cell-based
NCI-H520 = experiment: Antiproliferative activity against human NCI-H520 cells; assay type: functional, cell-based
MGC-803 [17] = experiment: Antiproliferative activity against human MGC-803 cells; assay type: functional, cell-based
ECa-109 cell line = experiment: Antiproliferative activity against human EC109 cells; assay type: functional, cell-based
A549 [18] = experiment: Antiproliferative activity against human A549 cells; assay type: functional, cell-based
BGC-823 = experiment: Antiproliferative activity against human BGC-823 cells; assay type: functional, cell-based
Histone deacetylase 1 = Histone deacetylase 1 (Homo sapiens, UniProt Q13547); experiment: Inhibition of HDAC1 (unknown origin)
Histone deacetylase 3 = Histone deacetylase 3 (Homo sapiens, UniProt O15379); experiment: Inhibition of HDAC3 (unknown origin)
Histone deacetylase 2 = Histone deacetylase 2 (Homo sapiens, UniProt Q92769); experiment: Inhibition of HDAC2 (unknown origin)
Focal adhesion kinase 1 [19] = molecular target: T2, Focal adhesion kinase 1; experiment: Inhibition of FAK (unknown origin)
Target sequence in this assay (Q05397 whole entry): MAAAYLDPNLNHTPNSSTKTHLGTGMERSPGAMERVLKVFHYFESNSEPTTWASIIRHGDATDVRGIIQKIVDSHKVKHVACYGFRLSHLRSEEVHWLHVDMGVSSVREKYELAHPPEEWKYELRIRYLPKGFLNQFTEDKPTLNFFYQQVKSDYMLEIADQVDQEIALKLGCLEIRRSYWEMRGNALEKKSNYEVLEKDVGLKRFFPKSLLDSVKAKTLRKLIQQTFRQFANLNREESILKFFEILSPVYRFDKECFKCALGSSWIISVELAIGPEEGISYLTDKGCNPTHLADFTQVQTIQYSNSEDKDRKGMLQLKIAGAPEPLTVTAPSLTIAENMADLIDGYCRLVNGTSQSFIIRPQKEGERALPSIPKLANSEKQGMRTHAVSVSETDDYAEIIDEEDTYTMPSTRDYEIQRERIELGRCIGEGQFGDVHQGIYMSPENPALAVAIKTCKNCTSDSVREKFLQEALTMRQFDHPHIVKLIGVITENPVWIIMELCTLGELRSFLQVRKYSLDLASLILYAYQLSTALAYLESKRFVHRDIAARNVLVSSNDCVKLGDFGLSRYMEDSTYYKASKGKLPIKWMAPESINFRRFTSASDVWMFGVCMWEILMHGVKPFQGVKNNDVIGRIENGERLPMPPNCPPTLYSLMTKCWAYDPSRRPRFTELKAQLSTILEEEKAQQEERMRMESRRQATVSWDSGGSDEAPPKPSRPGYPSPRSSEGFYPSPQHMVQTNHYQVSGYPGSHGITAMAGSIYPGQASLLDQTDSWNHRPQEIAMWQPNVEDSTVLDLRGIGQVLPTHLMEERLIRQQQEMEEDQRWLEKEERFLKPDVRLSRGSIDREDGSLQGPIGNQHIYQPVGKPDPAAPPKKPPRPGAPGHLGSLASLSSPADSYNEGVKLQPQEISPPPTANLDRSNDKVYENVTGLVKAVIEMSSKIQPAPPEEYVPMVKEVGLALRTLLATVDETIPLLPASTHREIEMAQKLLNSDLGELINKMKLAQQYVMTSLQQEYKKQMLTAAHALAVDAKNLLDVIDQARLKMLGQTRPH

MCF7 [20] = experiment: Antiproliferative activity against human MCF7 cells assessed as reduction in cell viability incubated for 48 hrs by MTT assay; assay type: functional, cell-based; conditions: MCF7, 48 h
HepG2 [21] = experiment: Antiproliferative activity against human HepG2 cells assessed as reduction in cell viability incubated for 48 hrs by MTT assay; assay type: functional, cell-based; conditions: HepG2, 48 h
[22] = Oral bioavailability in human at 10 mg/kg; assay type: ADME, organism-based; conditions: in vivo
HCT-15 = experiment: Antiproliferative activity against human HCT-15 cells assessed as reduction in cell viability incubated for 48 hrs by MTT assay; assay type: functional, cell-based; conditions: HCT-15, 48 h
[23] = Half life in human at 1 mg/kg, iv by LC-MS/MS analysis; assay type: ADME, organism-based; conditions: in vivo
A549 [24] = experiment: Antiproliferative activity against human A549 cells assessed as reduction in cell viability incubated for 48 hrs by MTT assay; assay type: functional, cell-based; conditions: A549, 48 h
[25] = Half life in human at 10 mg/kg, po by LC-MS/MS analysis; assay type: ADME, organism-based; conditions: in vivo
U-87 MG = experiment: Antiproliferative activity against human U-87 MG cells assessed as reduction in cell viability incubated for 48 hrs by MTT assay; assay type: functional, cell-based, U-87MG ATCC
[26] = Antiproliferative activity against HUVEC cells assessed as cell growth inhibition measured after 72 hrs by crystal violet staining based analysis; assay type: toxicity; conditions: human
MDA-MB-231 [27] = experiment: Antiproliferative activity against human MDA-MB-231 cells assessed as reduction in cell viability incubated for 48 hrs by MTT assay; assay type: functional, cell-based; conditions: MDA-MB-231, 48 h
[28] = Antiproliferative activity against human BEAS-2B cells assessed as reduction in cell viability incubated for 48 hrs by MTT assay; assay type: toxicity, cell-based
BXPC-3 = experiment: Antiproliferative activity against human BXPC-3 cells assessed as reduction in cell viability incubated for 48 hrs by MTT assay; assay type: functional, cell-based; conditions: BXPC-3, 48 h
PANC-1 = experiment: Antiproliferative activity against human PANC-1 cells assessed as reduction in cell viability incubated for 48 hrs by MTT assay; assay type: functional, cell-based; conditions: PANC-1, 48 h

Chain of Insulin receptor (P06213 28-758 limits assumed): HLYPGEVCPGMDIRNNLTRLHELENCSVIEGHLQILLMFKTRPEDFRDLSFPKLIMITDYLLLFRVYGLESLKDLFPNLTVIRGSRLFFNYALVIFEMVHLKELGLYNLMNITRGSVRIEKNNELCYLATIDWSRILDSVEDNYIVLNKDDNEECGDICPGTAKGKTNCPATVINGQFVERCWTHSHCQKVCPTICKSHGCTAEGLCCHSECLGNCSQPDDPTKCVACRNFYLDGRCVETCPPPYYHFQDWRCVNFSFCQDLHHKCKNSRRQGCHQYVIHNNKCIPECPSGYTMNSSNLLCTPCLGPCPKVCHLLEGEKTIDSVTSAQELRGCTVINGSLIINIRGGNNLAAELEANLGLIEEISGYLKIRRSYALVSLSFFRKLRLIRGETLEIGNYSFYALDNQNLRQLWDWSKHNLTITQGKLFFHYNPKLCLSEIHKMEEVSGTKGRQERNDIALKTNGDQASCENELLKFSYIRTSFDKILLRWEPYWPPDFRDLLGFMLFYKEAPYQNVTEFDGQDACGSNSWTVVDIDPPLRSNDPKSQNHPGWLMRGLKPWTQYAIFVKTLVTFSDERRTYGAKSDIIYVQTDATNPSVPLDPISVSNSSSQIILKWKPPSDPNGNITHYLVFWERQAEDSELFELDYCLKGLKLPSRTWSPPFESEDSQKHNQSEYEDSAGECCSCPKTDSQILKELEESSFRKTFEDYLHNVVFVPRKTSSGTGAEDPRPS
Chain of Insulin receptor (P06213 763-1382 limits assumed): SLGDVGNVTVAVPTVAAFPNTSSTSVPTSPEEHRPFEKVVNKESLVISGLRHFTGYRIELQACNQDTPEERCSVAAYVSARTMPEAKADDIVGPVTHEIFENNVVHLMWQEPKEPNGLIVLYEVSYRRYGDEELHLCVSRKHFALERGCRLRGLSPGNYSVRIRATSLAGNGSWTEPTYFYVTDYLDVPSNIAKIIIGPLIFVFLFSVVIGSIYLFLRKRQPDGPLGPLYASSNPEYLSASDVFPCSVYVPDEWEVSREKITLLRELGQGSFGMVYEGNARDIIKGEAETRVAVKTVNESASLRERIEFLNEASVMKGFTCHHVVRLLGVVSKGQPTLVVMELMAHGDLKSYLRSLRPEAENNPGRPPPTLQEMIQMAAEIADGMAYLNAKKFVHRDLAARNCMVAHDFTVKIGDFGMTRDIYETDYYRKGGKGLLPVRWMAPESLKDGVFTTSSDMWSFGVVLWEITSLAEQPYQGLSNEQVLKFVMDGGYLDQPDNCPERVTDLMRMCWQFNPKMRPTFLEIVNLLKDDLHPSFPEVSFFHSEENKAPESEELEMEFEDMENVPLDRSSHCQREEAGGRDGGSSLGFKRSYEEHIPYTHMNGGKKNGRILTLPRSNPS
T1 sequence (P40337 whole entry, looked up, other chains not shown): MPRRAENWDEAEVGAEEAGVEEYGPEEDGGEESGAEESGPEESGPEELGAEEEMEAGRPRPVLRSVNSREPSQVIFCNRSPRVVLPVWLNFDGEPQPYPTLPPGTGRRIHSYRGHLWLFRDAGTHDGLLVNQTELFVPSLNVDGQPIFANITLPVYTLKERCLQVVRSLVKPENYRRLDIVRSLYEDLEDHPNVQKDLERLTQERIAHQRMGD
Chain of Histone deacetylase 1 (Q13547 whole entry): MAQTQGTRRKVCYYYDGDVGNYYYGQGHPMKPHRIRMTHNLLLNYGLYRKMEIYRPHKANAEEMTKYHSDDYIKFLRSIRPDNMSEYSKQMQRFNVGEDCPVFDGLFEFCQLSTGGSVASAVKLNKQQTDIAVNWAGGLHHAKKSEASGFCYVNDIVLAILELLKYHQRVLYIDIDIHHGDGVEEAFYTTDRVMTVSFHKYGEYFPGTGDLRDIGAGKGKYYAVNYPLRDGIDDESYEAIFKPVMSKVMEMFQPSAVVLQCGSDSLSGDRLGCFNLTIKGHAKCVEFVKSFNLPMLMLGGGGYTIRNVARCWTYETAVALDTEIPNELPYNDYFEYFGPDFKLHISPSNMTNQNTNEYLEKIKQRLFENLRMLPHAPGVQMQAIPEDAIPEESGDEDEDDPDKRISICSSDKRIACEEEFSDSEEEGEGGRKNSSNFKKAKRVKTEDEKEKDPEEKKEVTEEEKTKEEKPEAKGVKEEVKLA
Chain of Histone deacetylase 3 (O15379 whole entry): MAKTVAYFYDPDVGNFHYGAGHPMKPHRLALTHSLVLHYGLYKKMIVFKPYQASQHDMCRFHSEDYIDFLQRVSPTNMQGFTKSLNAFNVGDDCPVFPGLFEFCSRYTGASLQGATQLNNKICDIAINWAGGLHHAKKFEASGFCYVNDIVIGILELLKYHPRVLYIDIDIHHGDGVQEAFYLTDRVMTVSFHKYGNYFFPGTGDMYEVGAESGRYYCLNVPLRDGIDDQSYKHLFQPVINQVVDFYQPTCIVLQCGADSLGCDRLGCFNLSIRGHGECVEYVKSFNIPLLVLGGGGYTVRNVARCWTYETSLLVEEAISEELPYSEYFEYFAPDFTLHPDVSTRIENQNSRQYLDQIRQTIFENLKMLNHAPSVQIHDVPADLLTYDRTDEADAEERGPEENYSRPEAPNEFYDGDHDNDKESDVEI

## COc1cc(C(=O)NC2CCNCC2)ccc1Nc1nc(Oc2cccc3c2C(=O)CC3)c2cc[nH]c2n1
[1]
  half-life: 4.08 h

## O=C1CCc2cccc(Oc3nc(Nc4ccc(N5CCN(C(=S)SCCCN6CCOCC6)CC5)cc4)ncc3C(F)(F)F)c21
MDA-MB-231 [2]
  IC50: 0.26 µM
HCT-116 [3]
  IC50: 0.19 µM
HeLa
  IC50: 0.27 µM
Insulin receptor
  IC50: > 1 µM

## Clc1ccc(-c2cc(OCCCN3CCOCC3)c3cc(-c4ccco4)ccc3n2)cc1
DLD-1
  IC50: 2.09 µM
HCT-116 [4]
  IC50: 2.96 µM

## Cc1ncsc1-c1ccc(CNC(=O)[C@@H]2C[C@@H](O)CN2C(=O)[C@@H](NC(=O)CCOCCOc2ccc(Nc3ncc(C(F)(F)F)c(NCc4cccc(N(C)S(C)(=O)=O)c4)n3)cc2)C(C)(C)C)cc1
[5]
  DC50: 0.003 µM

## CN(c1ncccc1CNc1nc(Nc2ccc(N3CCN(CCCCCCC(=O)NCCNc4cccc5c4C(=O)N(C4CCC(=O)NC4=O)C5=O)CC3)cc2)ncc1C(F)(F)F)S(C)(=O)=O (stereo unspecified)
[6]
  Emax: 85%
Focal adhesion kinase 1 [7]
  inhibition: 96.9%
Focal adhesion kinase 1 [8]
  inhibition: 84.4%
[9]
  half-life: > 3.25 h

## CNC(=O)c1ccccc1Nc1cc(Nc2ccc(N3CCN(CC(=O)N[C@H](C(=O)N4C[C@H](O)C[C@H]4C(=O)N[C@@H](C)c4ccc(-c5scnc5C)cc4)C(C)(C)C)CC3)cc2OC)ncc1C(F)(F)F
[5]
  DC50: 0.0084 µM

## O=C(CSC1Nc2ccccc2C(=O)N1c1ccccc1)N1CCN(c2ccccc2Cl)CC1 (stereo unspecified)
MCF7 [10]
  IC50: 7.92 µM
A-375
  IC50: 7.13 µM
HepG2 [11]
  IC50: 5.56 µM
SGC-7901
  IC50: 11.7 µM

## CNC(=O)c1ccccc1Nc1nc(Nc2ccc(N3CCOCC3)cc2OC)ncc1Cl
MGC-803 [12]
  Activity: 53.53%

## COc1cc2nc(-c3ccc(C(F)(F)F)cc3)cc(OCCCNCC3CCCO3)c2cc1OC (stereo unspecified)
DLD-1
  IC50: 2.48 µM
HCT-116 [4]
  IC50: 5.68 µM

## CNC(=O)c1ccccc1Nc1nc(Nc2ccc(NC(=O)CCCCCCC(=O)NO)cc2)ncc1Cl
HCT-116 [13]
  IC50: 0.248 µM
KYSE-450
  IC50: 0.619 µM
[14]
  IC50: 0.667 µM
HGC-27
  IC50: 0.512 µM
MCF7 [15]
  IC50: 0.834 µM
MDA-MB-231 [16]
  IC50: 1.89 µM
DU-145
  IC50: 0.467 µM
TE-1
  IC50: 1.13 µM
NCI-H520
  IC50: 2.58 µM
MGC-803 [17]
  IC50: 0.182 µM
ECa-109 cell line
  IC50: 0.981 µM
A549 [18]
  IC50: 1.79 µM
BGC-823
  IC50: 0.194 µM
Histone deacetylase 1
  IC50: 0.526 µM
Histone deacetylase 3
  IC50: 1.05 µM
Histone deacetylase 2
  IC50: 0.629 µM

## CCCS(=O)(=O)NCC(=O)N1CCN(c2ccc(Nc3ncc(Cl)c(Nc4ccccc4C(=O)NC)n3)cc2)CC1
MDA-MB-231 [2]
  IC50: 0.18 µM
Focal adhesion kinase 1 [19]
  IC50: 0.048 µM
HCT-116 [3]
  IC50: 0.17 µM
HeLa
  IC50: 0.19 µM
Insulin receptor
  IC50: 0.107 µM

## Clc1cccc(Cn2ccc3cnc(NC4CCC(N5CCNCC5)CC4)nc32)c1 (stereo unspecified)
MCF7 [20]
  IC50: 2 µM
HepG2 [21]
  IC50: 3.5 µM
[22]
  bioavailability: 77.6%
HCT-15
  IC50: 0.9 µM
Focal adhesion kinase 1 [19]
  IC50: 0.0099 µM
[23]
  half-life: 2.41 h
A549 [24]
  IC50: 0.8 µM
[25]
  half-life: 3.8 h
U-87 MG
  IC50: 12.7 µM
[26]
  IC50 at 72 h: 6.9 µM
MDA-MB-231 [27]
  IC50: 1.6 µM
[28]
  IC50 at 48 h: 7.1 µM
BXPC-3
  IC50: 2.3 µM
PANC-1
  IC50: 3.7 µM

## CC(=O)NCCC(=O)Nc1cc(Nc2ncc(Br)c(Nc3ccc(NC(C)=O)cc3NC(C)=O)n2)ccc1OCCF
Focal adhesion kinase 1 [19]
  IC50: 0.0037 µM

## COc1cc2nc(-c3ccc(C(F)(F)F)cc3)cc(OCCCNC3CCN(C)CC3)c2cc1OC
DLD-1
  IC50: 1.79 µM
HCT-116 [4]
  IC50: 3.28 µM

## CNC(=O)c1ccccc1Nc1nc(Nc2ccc(/C=C/C(=O)N3CCOCC3)cc2)ncc1Cl
Focal adhesion kinase 1 [19]
  IC50: 0.0472 µM

## COc1cc2nc(-c3ccc(C(F)(F)F)cc3)cc(OCCCN3CCN(C)CC3)c2cc1OC
DLD-1
  IC50: 2.25 µM
HCT-116 [4]
  IC50: 3.09 µM

## CNC(=O)c1ccccc1Nc1nc(Nc2ccc(N3CCN(C(=S)SCCCN4CCOCC4)CC3)cc2)ncc1Cl
MDA-MB-231 [2]
  IC50: 4.19 µM
Focal adhesion kinase 1 [19]
  IC50: 0.052 µM
HCT-116 [3]
  IC50: 0.64 µM
HeLa
  IC50: 2.68 µM
Insulin receptor
  IC50: 0.168 µM

Reference: ChEMBL document CHEMBL6078619, “Targeting focal adhesion kinase (FAK) in cancer therapy: A recent update on inhibitors and PROTAC degraders” (Eur J Med Chem, 2024)
